Experimental data: patent US7208528B1, “Polyamine analogues as therapeutic and diagnostic agents” (MediQuest Therapeutics, Inc., priority 1997, dated 2007)

Legend:
[1] = test system: polyamine transporter (PATr); test: Polyamine transport (PAT) inhibition assay, 3H-spermidine uptake into MDA-MB-231 cells; assay type: cell-based, human; conditions: for Ki: MDA-MB-231 cells
Experimental: (§1) The radiometric assay uses radiolabeled polyamines such as putrescine, spermidine or spermine, but, due to the low signal, large numbers of adherent or non-adherent cells are required. Additional care is required with spermine due to its nonspecific adsorption to cells and plastics. Cells are mixed with the test compounds and the radiolabeled polyamine to initiate the assay. The cells are incubated for 1–60 minutes, depending on cell type. The assay is terminated by removal of the medium and cooling the plates to 4° C. The cells are then washed with cold medium three times, dissolved in 0.1% sodium dodecyl sulfate and the radioactivity in solution is then determined by scintillation counting. This assay is difficult to scale up to a high throughput procedure due to the low signal from the radiolabel and the handling requirements inherent in procedures with radioactivity.
Therefore, the growth assay and a kinetic transport assay have been used to validate transport inhibition.
The polyamine analogues and derivatives of the invention may be evaluated for their ability to inhibit the uptake of spermidine into MDA cells in culture. Joro spider toxin JSTx-3 is available from Calbiochem; 1-Naphthylacetylspermine is available from RBI. Deoxyspergualin was a generous gift from Paul Gladstone.
300 nM 1202 was the maximum concentration tested in initial rate transport assays.

[2] = target: spermidine/spermine acetyltransferase (SSAT) (Homo sapiens, UniProt P21673); test: Spermidine/spermine acetyltransferase enzymatic activity, 14C-acetyl CoA incorporation; assay type: biochemical; conditions: 1 mM spermidine, 1 mM 14C-acetyl CoA, pH 7.8
Chain of spermidine/spermine acetyltransferase (SSAT) (P21673 whole entry, species assumed): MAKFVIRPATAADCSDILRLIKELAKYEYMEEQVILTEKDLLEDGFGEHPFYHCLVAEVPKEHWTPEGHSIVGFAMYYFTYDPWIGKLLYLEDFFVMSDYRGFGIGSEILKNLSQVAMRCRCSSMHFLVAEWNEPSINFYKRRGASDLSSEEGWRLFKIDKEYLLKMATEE
Experimental: A study was conducted to determine whether the compositions of the present invention, designed as PAT inhibitors, had other activities on the PA system. Specifically, the ability of DACS to inhibit an enzyme involved in PA recycling was evaluated. The method used was as described in Casero, R. A. et al., Biochem. J. 270:615–620 (1990) hereby incorporated by reference in its entirety. This assay measures the incorporation of ^14C-labeled acetyl CoA into spermidine to form acetylspermidine. Varying concentrations of DACS were added to a reaction mixture containing HEPES buffer, pH 7.8, 1 mM spermidine, and 1 mM ^14C-Acetyl CoA. The product is isolated by binding to phosphocellulose filter paper and the extent of reaction is determined by scintillation counting.

[3] = test system: T-cell acute lymphoblastic leukemias (ALL), glioblastomas, prostate, and colon cell lines; test: In vitro test in combination with ODC inhibitors against several human cancer cell lines; assay type: cell-based
Experimental: DACS was tested in vitro in combination with ODC inhibitors against several human cancer cell lines. These include T-cell acute lymphoblastic leukemias (ALL), glioblastomas, prostate, and colon cell lines.

MDA-MB-231 cells = test: Growth assay of MDA-MB-231 cells with ODC inhibitor (DFMO) and 1 μM spermidine; conditions: for IC50: read-out: IC50 for growth in combination with ODC inhibitor (DFMO), 230 μM DFMO; for IC50 / IC50 with DFMO, result in words: 1 μM spermidine; for R, ratio of IC50 in the absence of DFMO over IC50 in the presence of DFMO: MDA growth assay; for concentration added to culture media at which growth inhibition due to 1202 and DFMO begins to reverse: cells treated with 1202 and DFMO
Experimental: The estrogen insensitive human breast carcinoma MDA-MB-231 cell line as the primary cell line in the screen. […] In order to optimize the screen for polyamine transport inhibition, 1.0 μM spermidine was added to media to reverse the effects of ODC inhibitors. The assay was also performed over seven days because this allows for the greatest dynamic range in cell growth due to the mechanism of ODC inhibitors. Cells need to divide several times before the intracellular level of polyamines begin to decrease to growth inhibitory levels.
Compounds were tested for their ability to inhibit cell growth in the presence of 1 μM spermidine and 230 μM ODC inhibitor for the MDA-MB-231 cells or 1 mM ODC inhibitor for the PC3 cells.
In our six day growth assays, 1202 was tested at increasing concentrations with the optimal concentration of DFMO.

[4] = test system: polyamine transporter (PATr); test: Radiometric PAT assay in A172 glioblastoma cells; assay type: cell-based; conditions: A172 cell line
Experimental: as §1

[5] = test system: MDA breast carcinoma cells; test: Rescue from DFMO-induced growth inhibition of MDA cells without added polyamines, six day growth assay; assay type: cell-based, human; conditions: absence of polyamines
Experimental: An additional series of spermine amides were evaluated to extend the structure-activity relationship around this polyamine transport target.
Growth assays were done over a six day period in order to allow for polyamine depletion within cells. When synthesis of polyamines is inhibited, cells compensate by increasing transport of extracellular polyamines into the cell. Over the time course of the assay, polyamines in the culture media may be depleted resulting in growth inhibition.

Solubility in water = assay type: physicochemical; conditions: pH 7.0
cancer cells = conditions: cited from earlier work

SMILES | IC50 (MDA-MB-231 cells) | Ki [1] | also measured
CN(C)c1cccc2c(S(=O)(=O)NCCCCCC(=O)NCCCNCCCCNCCCN)cccc12 [Compound 4, N^1-[(N^6-dansyl)-6-aminocaproyl]spermine] | 600 nM | – | affinity higher than the compound reported by Felschow et al. [1]: 100 times; increase in binding to the PATr by six carbon linker ([1]; versus compound without linker): 10 fold; inhibition of SSAT enzymatic activity [2]: inhibited; effect against tumor cell lines in vitro [3]: effective; concentration at which compound alone becomes growth inhibitory (MDA-MB-231 cells; alone, without ODC inhibitor): 300 µM; reduction of cell growth (MDA-MB-231 cells; with ODC inhibitor in the presence of polyamines, day 3): 69%
NCCCNCCCCNCCCNC(=O)CCCCCNS(=O)(=O)c1ccc(CNC(=O)c2ccc(Cl)cc2)s1 [Compound 5, N^1-[(N^6-5-(4-chlorobenzamidomethyl)-thiophene-2-sulfonyl)-6-aminocaproyl]spermine] | – | – | R, ratio of IC50 in the absence of DFMO over IC50 in the presence of DFMO (MDA-MB-231 cells): 210
NCCCNCCCCNCCCNC(=O)CCCCCNS(=O)(=O)c1ccc2oc3ccccc3c2c1 [Compound 6] | – | – | R, ratio of IC50 in the absence of DFMO over IC50 in the presence of DFMO (MDA-MB-231 cells): 220
CN(C)CCCN1c2ccccc2CCc2ccccc21 [Compound 165, imipramine, reference compound] | – | – | type of PAT inhibition ([1]; A172 and MDA cells): non-competitive; inhibition of the PAT assay ([1]; MDA cell line): inhibited; inhibition of the PAT assay [4]: inhibited
NCCCNCCCCNCCCNC(=O)Cc1cccc2ccccc12 [Compound 1022, 1-Naphthylacetylspermine, reference compound] | 8300 nM | 230 nM | –
N=C(N)NCCCCCCC(=O)NC(O)C(=O)NCCCCNCCCN (centres unmarked) [Compound 1085, deoxyspergualin, reference compound] | – | 81 nM | –
NCCCCCC(=O)NCCCNCCCCNCCCN [Compound 1094, N^1-[6-aminocaproylspermine]] | – | 69 nM | rescue of cells from growth inhibitory effects of DFMO [5]: able to rescue
NCCCNCCCCNCCCNC(=O)C(N)Cc1c[nH]c2ccccc12 [Compound 1095, N^1-Spermine-L-tryptophanyl amide] | 15000 nM | 162 nM | –
CC(=O)NCCCNCCCCNCCCN [Compound 1110, N^1-acetylspermine, reference compound] | – | 162 nM | greater affinity for the transport system than spermidine ([1]; Ki versus Km of spermidine): 3 fold
NCCCNCCCCNCCC(=O)NCCCCCNC(=O)[C@H](CC(N)=O)NC(=O)Cc1ccc(O)cc1O [Compound 1111, reference compound] | – | 190 nM | –
NCCCNCCCCNCCCNC(=O)CN [Compound 1125, N^1-Spermine-glycinyl amide] | – | 87 nM | rescue of cells from growth inhibitory effects of DFMO [5]: able to rescue; IC50 with DFMO, result in words (MDA-MB-231 cells): failed to give effective IC50 values
NCCCNCCCCNCCCNC(=O)C(N)CC(N)=O [Compound 1131, N^1-Spermine-L-asparaginyl amide] | – | 32 nM | –
NCCCNCCCCNCCCNC(=O)C(N)CCC(N)=O [Compound 1154, N^1-Spermine-L-glutaminyl amide] | – | 47 nM | IC50 with DFMO, result in words (MDA-MB-231 cells): failed to give effective IC50 values
CC(C)C(N)C(=O)NCCCNCCCCNCCCN [Compound 1157, N^1-Spermine-L-valinyl amide] | 16000 nM | 84 nM | rescue of cells from growth inhibitory effects of DFMO [5]: not able to rescue
NCCCNCCCCNCCCNC(=O)[C@@H]1CCCN1 [Compound 1159, N^1-Spermine-L-prolinyl amide] | 5000 nM | 38 nM | rescue of cells from growth inhibitory effects of DFMO [5]: able to rescue
CC(C)(C)OC(=O)NCCCNCCCCNCCCN [Compound 1163, N^1-boc-spermine] | – | 83 nM | –
CSCCC(N)C(=O)NCCCNCCCCNCCCN [Compound 1164, N^1-Spermine-L-methionyl amide] | – | 34 nM | IC50 with DFMO, result in words (MDA-MB-231 cells): failed to give effective IC50 values
NCCCNCCCCNCCCNC(=O)C(N)Cc1ccc(O)cc1 [Compound 1173, N^1-Spermine-L-tyrosinyl amide] | – | 77 nM | –
NCCCNCCCCNCCCNC(=O)CCN [Compound 1177, N^1-Spermine-β-alanyl amide] | – | 71 nM | IC50 with DFMO, result in words (MDA-MB-231 cells): failed to give effective IC50 values

SMILES | IC50 (MDA-MB-231 cells) | Ki [1] | also measured
CC(N)C(=O)NCCCNCCCCNCCCN [Compound 1178, N^1-Spermine-L-alanyl amide] | – | 244 nM | –
NCCCNCCCCNCCCNC(=O)C(N)CO [Compound 1187, N^1-Spermine-L-serinyl amide] | 26000 nM | 45 nM | –
CC(C)(C)C(N)C(=O)NCCCNCCCCNCCCN [Compound 1194, N^1-Spermine-L-^tbutylglycinyl amide] | 11000 nM | 212 nM | –
CC(C)C(N)C(=O)NCCCNCCCCNCCCN [Compound 1196, N^1-Spermine-D-valinyl amide] | 9000 nM | 48 nM | –
NCCCCC(N)C(=O)NCCCNCCCCNCCCN [Compound 1202, N^1-Spermine-L-lysinyl amide] | – | – | solubility (Solubility in water): ≥ 100000 µM
CC(O)C(N)C(=O)NCCCNCCCCNCCCN [Compound 1207, N^1-Spermine-L-threoninyl amide] | 6000 nM | 130 nM | –
NCCCNCCCCNCCCNC(=O)CC12CC3CC(CC(C3)C1)C2 [Compound 1212, N^1-Spermine 2-(1-adamantyl)acetamide] | 9000 nM | – | –
CC(C)(N)C(=O)NCCCNCCCCNCCCN [Compound 1220, N^1-Spermine-α-aminoisobutyryl amide] | 8000 nM | 160 nM | –
NCCCNCCCCNCCCNC(=O)C(N)CCCN [Compound 1224, N^1-Spermine-L-ornithyl amide] | 3000 nM | 47 nM | rescue of cells from growth inhibitory effects of DFMO [5]: not able to rescue
NCCCNCCCCNCCCNC(=O)C(N)CC1CCCCC1 [Compound 1227, N^1-Spermine-L-cyclohexanealanyl amide] | – | 241 nM | –
CCC(C)C(N)C(=O)NCCCNCCCCNCCCN [Compound 1228, N^1-Spermine-L-isoleucinyl amide] | 9000 nM | 124 nM | –
CC(C)CC(N)C(=O)NCCCNCCCCNCCCN [Compound 1230, N^1-Spermine-L-leucinyl amide] | – | 32 nM | IC50 with DFMO, result in words (MDA-MB-231 cells): failed to give effective IC50 values
NCCCNCCCCNCCCNC(=O)C12CC3CC(CC(C3)C1)C2 [Compound 1235, N^1-spermine 1-adamantylamide] | – | 1140 nM | –
NCCCNCCCCNCCCNC(=O)C(N)Cc1c[nH]c2ccccc12 [Compound 1309, N^1-Spermine-D-tryptophanyl amide] | – | 26 nM | –
NCCCCN [PUT, putrescine, reference compound] | – | – | concentration added to culture media at which growth inhibition due to 1202 and DFMO begins to reverse (MDA-MB-231 cells): greater than 10 μM
NCCCNCCCCNCCCN [SPM, spermine, reference compound] | – | – | concentration added to culture media at which growth inhibition due to 1202 and DFMO begins to reverse (MDA-MB-231 cells): 1 µM
NCCCCN(CCCN)CCCNC(=O)CCCc1ccc(N(CCCl)CCCl)cc1 [chlorambucil-spermidine conjugate] | – | – | increase in cytotoxicity compared to chlorambucil alone (cancer cells): ≤ 225 fold
NCCCCNCCCN [spermidine, reference compound] | – | – | Km ([1]; MDA cells, read-out: Km for the transport system): 0.52 µM; concentration added to culture media at which growth inhibition due to 1202 and DFMO begins to reverse (MDA-MB-231 cells): 1 µM
